Molecular target: S1P1/EDG1 (Homo sapiens, UniProt P21453)
Assay: S1P1 CRE-bla CHOK1 reporter assay, inhibition of Forskolin induced cAMP
Assay type: cell-based
Conditions: agonist activity range, S1P1 CRE-bla CHOK1, 2 μM Forskolin; read-out: S1P1 ACTIVITY
Outline: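 Read-out is a FRET β-lactamase substrate (2 h, room temperature) after 4 h, 37 °C compound treatment under 2 μM Forskolin in stable S1P1-transfected CRE-bla CHO-K1 cells. Ten-point curves; non-linear regression gives EC50 for inhibition of Forskolin-stimulated cAMP.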

Sequence of S1P1/EDG1 (P21453 whole entry): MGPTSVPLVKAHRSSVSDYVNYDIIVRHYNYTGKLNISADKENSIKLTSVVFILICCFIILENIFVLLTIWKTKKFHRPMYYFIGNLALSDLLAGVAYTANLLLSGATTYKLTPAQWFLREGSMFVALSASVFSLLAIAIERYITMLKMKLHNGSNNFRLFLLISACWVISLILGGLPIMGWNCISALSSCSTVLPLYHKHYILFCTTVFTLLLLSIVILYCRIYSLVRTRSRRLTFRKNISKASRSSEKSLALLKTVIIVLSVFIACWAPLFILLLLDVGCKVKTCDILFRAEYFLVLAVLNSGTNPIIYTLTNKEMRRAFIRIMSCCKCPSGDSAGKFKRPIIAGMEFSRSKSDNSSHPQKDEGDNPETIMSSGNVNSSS

Compound: CC(C)Oc1ccc(-c2nc(-c3cccc4c3CC[C@@H]4NS(=O)(=O)CCN3CC[C@H](O)C3)no2)cc1C#N [Compound 174]
- EC50: 500 to 5000 pM

Compound: CC(C)Oc1ccc(-c2nc(-c3cccc4c3CC[C@H]4NS(=O)(=O)CCN3CCCCC3)no2)cc1C#N [Compound 175]
- EC50: 500 to 5000 pM

Compound: CC(C)Oc1ccc(-c2nc(-c3cccc4c3CC[C@H]4NS(=O)(=O)CCN3CCOCC3)no2)cc1C#N [Compound 176]
- EC50: 500 to 5000 pM

Compound: CC(C)Oc1ccc(-c2nc(-c3cccc4c3CC[C@@H]4NS(=O)(=O)CCN3CCOCC3)no2)cc1C#N [Compound 177]
- EC50: 500 to 5000 pM

Compound: COC(=O)CCS(=O)(=O)N[C@H]1CCc2c(-c3noc(-c4ccc(OC(C)C)c(C#N)c4)n3)cccc21 [Compound 182]
- EC50: 50 to 500 pM

Compound: COC(=O)C(C)(C)CS(=O)(=O)N[C@H]1CCc2c(-c3noc(-c4ccc(OC(C)C)c(C#N)c4)n3)cccc21 [Compound 183]
- EC50: 500 to 5000 pM

Compound: CC(C)Oc1ccc(-c2nc(-c3cccc4c3CC[C@H]4NS(=O)(=O)CC(=O)O)no2)cc1C#N [Compound 184, (R)-2 (N (4-(5-(3 cyano-4-isopropoxyphenyl)-1,2,4-oxadiazol-3-yl)-2,3-dihydro-1H-inden-1-yl)sulfamoyl)acetic acid]
- EC50: < 50 pM

Compound: CC(C)Oc1ccc(-c2nc(-c3cccc4c3CC[C@@H]4NS(=O)(=O)CCC(=O)O)no2)cc1C#N [Compound 185]
- EC50: < 50 pM

Compound: CC(C)Oc1ccc(-c2nc(-c3cccc4c3CC[C@H]4NS(=O)(=O)CCCO)no2)cc1C#N [Compound 188]
- EC50: < 50 pM

Compound: CC(C)Oc1ccc(-c2nc(-c3cccc4c3CC[C@@H]4NS(=O)(=O)CC(=O)N3CC(O)C3)no2)cc1C#N [Compound 189]
- EC50: 50 to 500 pM

Compound: CC(C)Oc1ccc(-c2nc(-c3cccc4c3CC[C@H]4NS(=O)(=O)CC(=O)N3CC(O)C3)no2)cc1C#N [Compound 190]
- EC50: < 50 pM

Compound: CC(C)Oc1ccc(-c2nc(-c3cccc4c3CC[C@@H]4NS(=O)(=O)CC(=O)N3CCOCC3)no2)cc1C#N [Compound 191]
- EC50: 50 to 500 pM

Compound: CC(C)Oc1ccc(-c2nc(-c3cccc4c3CC[C@H]4NS(=O)(=O)CC(=O)N3CCOCC3)no2)cc1C#N [Compound 192]
- EC50: < 50 pM

Compound: CC(C)Oc1ccc(-c2nc(-c3cccc4c3CC[C@@H]4NS(=O)(=O)CC(=O)N3CCC(O)CC3)no2)cc1C#N [Compound 193]
- EC50: 50 to 500 pM

Compound: CC(C)Oc1ccc(-c2nc(-c3cccc4c3CC[C@H]4NS(=O)(=O)CC(=O)N(C)C)no2)cc1C#N [Compound 194, (R)-2-(N-(4-(5-(3-cyano-4-isopropoxyphenyl)-1,2,4-oxadiazol-3-yl)-2,3-dihydro-1H-inden-1-yl)sulfamoyl)-N,N-dimethylacetamide]
- EC50: < 50 pM

Compound: CC(C)Oc1ccc(-c2nc(-c3cccc4c3CC[C@@H]4NS(=O)(=O)CC(=O)N(C)C)no2)cc1C#N [Compound 195, (S)-2 (N (4-(5-(3 cyano-4-isopropoxyphenyl)-1,2,4-oxadiazol-3-yl)-2,3-dihydro-1H-inden-1-yl)sulfamoyl)-N,N-dimethylacetamide]
- EC50: 50 to 500 pM

Compound: CC(C)Oc1ccc(-c2nc(-c3cccc4c3CC[C@@H]4NS(=O)(=O)CC(N)=O)no2)cc1C#N [Compound 196]
- EC50: < 50 pM

Compound: CC(C)Oc1ccc(-c2nc(-c3cccc4c3CC[C@H]4NS(=O)(=O)CC(N)=O)no2)cc1C#N [Compound 197]
- EC50: < 50 pM

Compound: CNC(=O)CS(=O)(=O)N[C@H]1CCc2c(-c3noc(-c4ccc(OC(C)C)c(C#N)c4)n3)cccc21 [Compound 198]
- EC50: 50 to 500 pM

Compound: CNC(=O)CS(=O)(=O)N[C@@H]1CCc2c(-c3noc(-c4ccc(OC(C)C)c(C#N)c4)n3)cccc21 [Compound 199]
- EC50: < 50 pM

Compound: CC(C)Oc1ccc(-c2nc(-c3cccc4c3CC[C@@H]4NS(=O)(=O)CC(=O)N3CCC3)no2)cc1C#N [Compound 200]
- EC50: < 50 pM

Compound: CC(C)Oc1ccc(-c2nc(-c3cccc4c3CC[C@H]4NS(=O)(=O)CC(=O)N3CCC3)no2)cc1C#N [Compound 201]
- EC50: < 50 pM

Compound: CC(C)Oc1ccc(-c2nc(-c3cccc4c3CC[C@H]4N3CC(C(=O)O)C3)no2)cc1C#N [Compound 202, (R)-1-(4-(5-(3-cyano-4-isopropoxyphenyl)-1,2,4-oxadiazol-3-yl)-2,3-dihydro-1H-inden-1-yl)azetidine-3-carboxylic acid]
- EC50: < 50 pM

Compound: CC(C)Oc1ccc(-c2nc(-c3cccc4c3CC[C@@H]4N3CC(C(=O)O)C3)no2)cc1C#N [Compound 203]
- EC50: 50 to 500 pM

Compound: CC(C)Oc1ccc(-c2nc(-c3cccc4c3CC[C@H]4N3CC(C(=O)N(C)C)C3)no2)cc1C#N [Compound 204]
- EC50: 50 to 500 pM

Compound: CC(C)Oc1ccc(-c2nc(-c3cccc4c3CC[C@@H]4N3CC(C(=O)N(C)C)C3)no2)cc1C#N [Compound 205]
- EC50: 50 to 500 pM

Compound: CNC(=O)C1CN([C@H]2CCc3c(-c4noc(-c5ccc(OC(C)C)c(C#N)c5)n4)cccc32)C1 [Compound 206]
- EC50: 50 to 500 pM

Compound: CC(C)Oc1ccc(-c2nc(-c3cccc4c3CC[C@@H]4N3CC(C(=O)N4CCC4)C3)no2)cc1C#N [Compound 207]
- EC50: 50 to 500 pM

Compound: CC(C)Oc1ccc(-c2nc(-c3cccc4c3CC[C@@H]4N(C)CC(=O)O)no2)cc1C#N [Compound 208]
- EC50: 50 to 500 pM

Compound: CC(C)Oc1ccc(-c2nc(-c3cccc4c3CC[C@@H]4N(C)CCO)no2)cc1C#N [Compound 209]
- EC50: 50 to 500 pM

Compound: CC(C)Oc1ccc(-c2nc(-c3cccc4c3CC[C@@H]4N(C)C)no2)cc1C#N [Compound 210]
- EC50: 500 to 5000 pM

Compound: CC(C)Oc1ccc(-c2nc(-c3cccc4c3CC[C@H]4NC(=O)N3CCOCC3)no2)cc1C#N [Compound 211]
- EC50: 50 to 500 pM

Compound: CC(C)Oc1ccc(-c2nc(-c3cccc4c3CC[C@@H]4NC(=O)N3CCOCC3)no2)cc1C#N [Compound 212]
- EC50: 50 to 500 pM

Compound: CC(C)Oc1ccc(-c2nc(-c3cccc4c3CC[C@H]4NC(=O)N3CCNCC3)no2)cc1C#N [Compound 213]
- EC50: 500 to 5000 pM

Compound: CC(C)Oc1ccc(-c2nc(-c3cccc4c3CC[C@@H]4NC(=O)N3CCNCC3)no2)cc1C#N [Compound 214]
- EC50: 50 to 500 pM

Compound: CC(C)Oc1ccc(-c2nc(-c3cccc4c3CC[C@H]4NC(=O)N3CCC[C@H](O)C3)no2)cc1C#N [Compound 215]
- EC50: 500 to 5000 pM

Compound: CC(C)Oc1ccc(-c2nc(-c3cccc4c3CC[C@@H]4NC(=O)N3CCC[C@H](O)C3)no2)cc1C#N [Compound 216]
- EC50: 50 to 500 pM

Compound: CC(C)Oc1ccc(-c2nc(-c3cccc4c3CC[C@H]4NC(=O)N3CCC(CO)CC3)no2)cc1C#N [Compound 217]
- EC50: 500 to 5000 pM

Compound: CC(C)Oc1ccc(-c2nc(-c3cccc4c3CC[C@@H]4NC(=O)N3CCC(CO)CC3)no2)cc1C#N [Compound 218]
- EC50: 50 to 500 pM

Compound: CC(C)Oc1ccc(-c2nc(-c3cccc4c3CC[C@H]4NC(=O)N3CCC[C@@H](O)C3)no2)cc1C#N [Compound 219]
- EC50: 500 to 5000 pM

Compound: CC(C)Oc1ccc(-c2nc(-c3cccc4c3CC[C@@H]4NC(=O)N3CCC[C@@H](O)C3)no2)cc1C#N [Compound 220]
- EC50: 50 to 500 pM

Compound: CC(C)Oc1ccc(-c2nc(-c3cccc4c3CC[C@H]4NC(=O)N3CC[C@@H](N)C3)no2)cc1C#N [Compound 221]
- EC50: 50 to 500 pM

Compound: CC(C)Oc1ccc(-c2nc(-c3cccc4c3CC[C@H]4NC(=O)N3CC[C@H](N)C3)no2)cc1C#N [Compound 222]
- EC50: 500 to 5000 pM

Compound: CC(C)Oc1ccc(-c2nc(-c3cccc4c3CC[C@@H]4NC(=O)N3CC[C@@H](N)C3)no2)cc1C#N [Compound 223]
- EC50: 500 to 5000 pM

Compound: CC(C)Oc1ccc(-c2nc(-c3cccc4c3CC[C@@H]4NC(=O)N3CC[C@H](N)C3)no2)cc1C#N [Compound 224]
- EC50: 500 to 5000 pM

Compound: COC(=O)CC1CCN(C(=O)N[C@@H]2CCc3c(-c4noc(-c5ccc(OC(C)C)c(C#N)c5)n4)cccc32)CC1 [Compound 225]
- EC50: 500 to 5000 pM

Compound: COC(=O)CC1CCN(C(=O)N[C@H]2CCc3c(-c4noc(-c5ccc(OC(C)C)c(C#N)c5)n4)cccc32)CC1 [Compound 226]
- EC50: 50 to 500 pM

Compound: CC(C)Oc1ccc(-c2nc(-c3cccc4c3CC[C@H]4NC(=O)OCCO)no2)cc1C#N [Compound 227]
- EC50: 50 to 500 pM

Compound: CC(C)Oc1ccc(-c2nc(-c3cccc4c3CC[C@H]4NC(=O)N3CCC(CC(=O)O)CC3)no2)cc1C#N [Compound 228]
- EC50: 500 to 5000 pM

Compound: CC(C)Oc1ccc(-c2nc(-c3cccc4c3CC[C@@H]4NC(=O)N3CCC(CC(=O)O)CC3)no2)cc1C#N [Compound 229]
- EC50: 50 to 500 pM

Compound: CC(C)Oc1ccc(-c2nc(-c3cccc4c3CC[C@H]4NC(=O)N3CC[C@@H](O)C3)no2)cc1C#N [Compound 230]
- EC50: 50 to 500 pM

Compound: CC(C)Oc1ccc(-c2nc(-c3cccc4c3CC[C@H]4NC(=O)N3CC[C@H](O)C3)no2)cc1C#N [Compound 231]
- EC50: 50 to 500 pM

Compound: CC(C)Oc1ccc(-c2nc(-c3cccc4c3CC[C@@H]4NC(=O)N3CC[C@@H](O)C3)no2)cc1C#N [Compound 232]
- EC50: 50 to 500 pM

Compound: CC(C)Oc1ccc(-c2nc(-c3cccc4c3CC[C@@H]4NC(=O)N3CC[C@H](O)C3)no2)cc1C#N [Compound 233]
- EC50: 50 to 500 pM

Compound: COC(=O)C1CCN(C(=O)N[C@@H]2CCc3c(-c4noc(-c5ccc(OC(C)C)c(C#N)c5)n4)cccc32)CC1 [Compound 236]
- EC50: 50 to 500 pM

Compound: COC(=O)C1CCN(C(=O)N[C@H]2CCc3c(-c4noc(-c5ccc(OC(C)C)c(C#N)c5)n4)cccc32)CC1 [Compound 237]
- EC50: 50 to 500 pM

Compound: CC(C)Oc1ccc(-c2nc(-c3cccc4c3CC[C@H]4NC(=O)N3CCC(C(=O)O)CC3)no2)cc1C#N [Compound 238]
- EC50: 50 to 500 pM

Compound: CC(C)Oc1ccc(-c2nc(-c3cccc4c3CC[C@@H]4NC(=O)N3CCC(C(=O)O)CC3)no2)cc1C#N [Compound 239]
- EC50: 50 to 500 pM

Compound: CC(C)Oc1ccc(-c2nc(-c3cccc4c3CC[C@H]4NC(=O)N3CCC(O)CC3)no2)cc1C#N [Compound 240]
- EC50: 500 to 5000 pM

Compound: CC(C)Oc1ccc(-c2nc(-c3cccc4c3CC[C@@H]4NC(=O)N3CCC(O)CC3)no2)cc1C#N [Compound 241]
- EC50: 50 to 500 pM

Compound: CC(C)Oc1ccc(-c2nc(-c3cccc4c3CC[C@H]4NC(=O)N3CC[C@@H](N(C)C)C3)no2)cc1C#N [Compound 242]
- EC50: 500 to 5000 pM

Compound: CC(C)Oc1ccc(-c2nc(-c3cccc4c3CC[C@H]4NC(=O)N3CC[C@H](N(C)C)C3)no2)cc1C#N [Compound 243]
- EC50: 500 to 5000 pM
